From patent EP4635958A1, “PYRIMIDINE-CONTAINING POLYCYCLIC DERIVATIVE INHIBITOR, AND PREPARATION METHOD THEREFOR AND USE THEREOF” (Shanghai Hansoh Biomedical Co., Ltd., priority 2022, dated 2024)

Legend:
[1] = system: AsPC-1; assay: Inhibition of proliferation of KRAS G12D mutant tumor cell line AsPC-1 (CellTiter-Glo); assay type: cell-based; conditions: Homo sapiens, ASPC1, about 72 h
Protocol: 1. Experimental objective: The inhibition activity of the example compounds on the proliferation of 5 KRAS G12D mutant cell lines SNU-1, HPAF-II, Panc0403, AsPC-1 and GP2D was determined. 2. Experimental instruments: • 2.1 Instruments: Microplate reader (BioTek Synergy H1); Pipette (Eppendorf & Rainin). • 2.2 Reagents: HPAF-II, PANC0403, AsPC-1 and GP2D were purchased from COBIOER BIOSCIENCES CO., LTD; SNU-1 was purchased from the cell bank of Chinese Academy of Sciences, Cell Titer-Glo was purchased from Promega, with a catalog number of G7573; RPMI 1640 was purchased from Gibco, with a catalog number of 22400089; DMEM was purchased from Gibco, with a catalog number of 11995065; FBS was purchased from Gibco, with a catalog number of 10091148; PBS was purchased from Gibco, with a catalog number of 10010023; trypsin was purchased from Gibco, with a catalog number of 25200056; cell culture plates were purchased from Corning Company, with a catalog number of 3610. 3. Experimental method: When SNU-1, HPAF-II, Panc0403, AsPC-1 or GP2D cells were cultured to the appropriate confluence, and the SNU-1, HPAF-II, Panc0403, AsPC-1 or GP2D cells were collected. The cells were adjusted to the appropriate cell density using complete culture medium, the cell suspension was plated onto a 96-well plate at 90 µL per well, and the plate was placed in the incubator at 37°C and 5% CO2 for adherent culture overnight. Solutions of the compound with different concentrations were formulated using DMSO and culture medium. A vehicle control was set up. The solutions of the compound were added to the 96-well plate at 10 µL per well, and the plate was placed in the incubator at 37°C and 5% CO2 for further culture for about 72 h. Then, CellTiter-Glo solution was added, and the obtained mixture was shaken and mixed evenly, incubated in the dark for 10 min, and read with a BioTek Synergy H1 microplate reader. 4. Experimental data processing method: The luminescence signal value was used to calculate the inhibition rate. Graphpad Prism software was used to fit the concentration and inhibition rate to a nonlinear regression curve, so as to obtain the IC50 value. 5. Experimental results: Table 2: Determination of the inhibition activity of the compounds on the proliferation of KRAS G12D mutant tumor cell line GP2D

[2] = Pharmacokinetic determination in mice (IV and PO, plasma, LCMS/MS); assay type: in vivo, Balb/c mice; conditions: mouse, in vivo, PO, 30 mg/kg, male Balb/c mice, overnight fasting, plasma
Text: • 1. Study objective: Balb/c mice were used as test animals to study the pharmacokinetic behavior of the compounds in mice (plasma) after oral administration. • 2. Test scheme • 2.1 Test drugs: The example compounds of the present invention, made in house; • 2.2 Test animals: Balb/c mice, male, purchased from Shanghai Jiesijie Experimental Animal Co., Ltd., animal production license number (SCXK (Shanghai) 2013-0006 N0.311620400001794). • 2.3 Drug formulation: Formulation of a drug for oral administration: 10% Captisol in 50 mM citrate buffer pH 5.0.
(§1) Formulation of 50 mM citric acid: 4.8 g of citric acid was weighed into a 1000 ml glass bottle, ultrapure water was added to 300 ml, and the mixture was magnetically stirred until completely dissolved, additional ultrapure water was then added to 500 ml to formulate 50 mM citric acid.
(§2) Formulation of a solution containing 50 mM citric acid (10% Captisol, PH = 5): 50 g of Captisol powder was weighed and added to a 1000 ml glass bottle, 300 ml of 50 mM citric acid was added, and the mixture was magnetically stirred until completely dissolved, then additional citric acid was added to 500 ml, and the PH was adjusted to 5 using 10 M NaOH.
The example compounds were weighed and added to a 4 mL glass bottle separately, 2.4 mL of the solution was added and the mixture was subjected to ultrasound treatment for 10 min to obtain a colorless clear solution with a concentration of 3 mg/mL.
(§3) Formulation of a drug for intravenous administration: 5%DMSO+10%Solutol HS15+85%PBS.
(§4) The example compounds were weighed, and 5% DMSO was added according to the total administration volume; the mixture was vortexed and sonicated for 2 min to ensure complete dissolution; then, 10% Solutol HS15 was added, and the mixture was vortexed and sonicated for 2 min to achieve complete dissolution; finally, 85% PBS was added, and the mixture was vortexed and sonicated for 5 min; the obtained mixture was filtered through a 0.22 um membrane to obtain a colorless, transparent, and clear solution with a concentration of 0.2 mg/mL.
3 Balb/c mice, male; After overnight fasting, the animals were administered orally (PO) at a dose of 30 mg/kg with an administration volume of 10 mL/kg.
3 Balb/C mice, male; After overnight fasting, the animals were administered intravenously (IV) at a dose of 1 mg/kg with an administration volume of 5 mL/kg.
0.04 mL of blood was collected from the orbit before administration and at 0.25 h, 0.5 h, 1 h, 2 h, 4 h, 6 h, 8 h, and 24 h after administration and placed in an EDTA-2K test tube, and the test tube was centrifuged at 6000 rpm for 6 min at 4°C to separate the plasma, which was stored at -20°C; the animals were fed 4 h after administration.
The final determination results obtained by applying the LCMS/MS method are shown in the table below: Table 6: Pharmacokinetic parameters of the compounds administered intravenously in mice

[3] = system: human colorectal cancer cell line (GP2D); assay: Anti-tumor efficacy in mouse transplanted tumor model of human colorectal cancer cell line (GP2D); assay type: in vivo, mice (BALB/c nude); conditions: 100mpk, PO*BID
Text: 8-10 week old female conventional immunodeficient mice (BALB/c nude) with a body weight of 18 g-22 g were used as experimental animals, and a transplanted tumor model of human colorectal cancer cell line (GP2D) was used to conduct in vivo efficacy experiments to test the anti-tumor results of the example compounds after gavage administration.
(§5) The example compounds of the present invention, made in house.
A certain amount of the example compound was weighed, and an appropriate amount of 10% vehicle (Solutol HS15) was added. The mixture was stirred on a magnetic stirrer for 0.5 h to formulate a homogeneous suspension at the desired concentration.
The human colorectal cancer cell line (GP2D) was derived from COBIOER BIOSCIENCES CO., LTD, cultured on DMEM medium (Gibco, 11995-065) supplemented with 10% fetal calf serum (Gibco, 10091-148) and 1% penicillin/streptomycin (Gibco, 15140-122) and observed under a microscope (Thermo Fisher, 311). The cells were routinely passaged when the cells reached 80%-90% confluence in the culture flask. The passaged cells were cultured in a 37°C, 5% CO2 incubator (Thermo Fisher, 311).
Under aseptic conditions, human colorectal cancer cells (GP2D) in the logarithmic growth phase were harvested using 0.25% trypsin-EDTA (Gibco, 25200-056), washed and resuspended with phosphate buffer. The cell suspension was mixed with Matrigel (Corning, 356234) at a 1 : 1 ratio (v/v) and implanted subcutaneously into the right anterior dorsal region of immunodeficient mice (BALB/c nude). Each mouse was inoculated with 5*10^6 cells in a volume of 100 microliters (µL). After inoculation, when the tumor volume reached 100-200 mm^3, the mice would be evenly randomized into 5 groups based on the tumor size, with 5 mice per group, for in vivo efficacy experiments. The positive control group was the compound MRTX-1133, and the negative control group was the vehicle group.
Mode of administration: The positive control group was intraperitoneally injected, and the example compounds were administered orally.
Twice a week, the long and short diameters of the tumor were measured using a vernier caliper, and the tumor volume (mm^3) was calculated using the formula: V = 0.5*D*d*d, where D and d are the long and short diameters of the tumor, respectively. The anti-tumor efficacy was determined by dividing the average increase in tumor volume of compound-treated animals by the average increase in tumor volume of untreated animals. The calculation formula for tumor inhibition rate was: When there is no tumor regression, TGI(%) = 100-[(Vt-V0) administration group/(Vt-V0) vehicle control group]*100%. When tumor regression occurs, TGI(%) = [1-(V1-V0) administration group/V0 vehicle control group]* 100%. All animals were euthanized after the experiment.

[4] = system: GP2D; assay: Inhibition of proliferation of KRAS G12D mutant tumor cell line GP2D (CellTiter-Glo); conditions: Homo sapiens, GP2d, 72 h, read-out: GP2D IC50
Protocol: Experimental method: When SNU-1, HPAF-II, Panc0403, AsPC-1 or GP2D cells were cultured to the appropriate confluence, and the SNU-1, HPAF-II, Panc0403, AsPC-1 or GP2D cells were collected. The cells were adjusted to the appropriate cell density using complete culture medium, the cell suspension was plated onto a 96-well plate at 90 µL per well, and the plate was placed in the incubator at 37°C and 5% CO2 for adherent culture overnight. Solutions of the compound with different concentrations were formulated using DMSO and culture medium. A vehicle control was set up. […] Then, CellTiter-Glo solution was added, and the obtained mixture was shaken and mixed evenly, incubated in the dark for 10 min, and read with a BioTek Synergy H1 microplate reader. […] Experimental data processing method: The luminescence signal value was used to calculate the inhibition rate. Graphpad Prism software was used to fit the concentration and inhibition rate to a nonlinear regression curve, so as to obtain the IC50 value.

[5] = Pharmacokinetic determination in rats (IV and PO, plasma, LCMS/MS); assay type: in vivo, SD rats; conditions: rat, in vivo, PO, 30 mg/kg, male SD rats, overnight fasting, plasma
Protocol: SD rats were used as test animals to study the pharmacokinetic behavior of the example compounds in rats (plasma) after oral administration.
as §5
3 SD rats per group, male. Shanghai Jiesijie Experimental Animal Co., Ltd., animal production license number (SCXK (Shanghai) 2013-0006 N0.311620400001794).
Formulation of a drug for oral administration: 10% Captisol in 50 mM citrate buffer pH 5.0.
as §1, §2
The example compounds were weighed and dissolved in the solution and the mixture was shaken well and subjected to ultrasound treatment for 15 min to obtain a colorless clear solution with a concentration of 3 mg/mL.
as §3, §4
3 SD rats per group, male; After overnight fasting, the animals were administered orally (PO) at a dose of 30 mg/kg with an administration volume of 10 mL/kg.
3 SD rats per group, male; After overnight fasting, the animals were administered intravenously (IV) at a dose of 1 mg/kg with an administration volume of 5 mL/kg.
0.2 mL of blood was collected from the jugular vein before administration and at 0.25 h, 0.5 h, 1.0 h, 2.0 h, 4.0 h, 6.0 h, 8.0 h, and 24.0 h after administration and placed in an EDTA-2K test tube, and the test tube was centrifuged at 6000 rpm for 6 min at 4°C to separate the plasma, which was stored at -20°C. the animals were fed 4 h after administration.
The final determination results obtained by applying the LCMS/MS method are shown in the table below: Table 8: Pharmacokinetic parameters of the compounds administered intravenously in rats

For `C#Cc1c(F)ccc2cc(O)cc(-c3nc4c5c(nc(OCC6(CN7CCC(=CF)C7)CC6)nc5c3F)N3C[C@H]5CC[C@H](N5)[C@H]3[C@H](C)O4)c12` [Example 131], the IC50 [1] was 5 nM, the AUC(0-inf) ([2]; read-out: AUC0-∞) was 559 ng·h/mL and the Cmax ([2]; read-out: Cmax) was 151 ng/mL. For the same compound, the half-life ([2]; read-out: T1/2 (converted)) was 18.3 h, the Tmax ([2]; read-out: Tmax) was 1 h and the “Tumor volume (mm^3, Mean ± SD) Day 0” value [3] was 167 mm^3. The “TGI(%) Day 14” value [3] was 127.11%, the “Tumor volume (mm^3, Mean ± SD) Day 14” value [3] was 122 mm^3 and the “ΔT/ΔC(%) Day 14” value [3] was 15.42%. The IC50 [4] was 0.17 nM.
`C#Cc1c(F)ccc2cc(O)cc(-c3nc4c5c(nc(OCC6(CN7CCC(=CF)CC7C)CC6)nc5c3F)N3CC5CCC(N5)C3C(C)O4)c12` (stereo not shown) [Example 285] gave an IC50 [1] of 4.8 nM, an AUC(0-inf) ([5]; read-out: AUCo-∞) of 598 ng·h/mL and a Cmax ([5]; read-out: Cmax) of 73 ng/mL. For the same compound, the Tmax ([5]; read-out: Tmax) was 2 h, the “Tumor volume (mm^3, Mean ± SD) Day 0” value [3] was 167 mm^3 and the “TGI(%) Day 14” value [3] was 148.04%. For the same compound, the “Tumor volume (mm^3, Mean ± SD) Day 14” value [3] was 87 mm^3, the “ΔT/ΔC(%) Day 14” value [3] was 10.99% and the IC50 [4] was 0.16 nM.
